Measured values taken from ChEMBL document CHEMBL4219139, “Enantiomeric trans β-aryl-δ-iodo-γ-lactones derived from 2,5-dimethylbenzaldehyde induce apoptosis in canine lymphoma cell lines by downregulation of anti-apoptotic Bcl-2 family members Bcl-xL and Bcl-2” (2018).
Activity calls are given as the source filed them. The calls are words filed in the database; no cut-off is given here.

Key:
CLB70 [1] = test: Induction of apoptosis in canine CLB70 cells assessed as cleavage of Bid at 25 to 50 ug/ml after 24 hrs by Western blot analysis; assay type: functional, cell-based; conditions: Canis lupus familiaris
Canis lupus familiaris [2] = organism: Canis lupus familiaris; test: Induction of apoptosis in canine GL1 cells assessed as cleavage of Bid at 25 to 50 ug/ml after 24 hrs by Western blot analysis; assay type: functional, cell-based
Canis lupus familiaris [3] = organism: Canis lupus familiaris; test: Induction of apoptosis in canine GL1 cells preincubated with Z-VAD-fmk pan-caspase inhibitor assessed as activation of caspase-3/7 at 50 ug/ml after 24 hrs by flow cytometry; assay type: functional, cell-based
CLBL-1 [4] = test: Induction of apoptosis in canine CLBL1 cells assessed as downregulation of Bcl-2 expression at 50 ug/ml after 24 hrs by Western blot analysis; assay type: functional, cell-based; conditions: Canis lupus familiaris
[5] = Cytotoxic activity against canine GL1 cells assessed as cell death at 50 ug/ml after 24 hrs by propidium iodide staining-based FACS analysis; assay type: functional, Canis lupus familiaris
Canis lupus familiaris [6] = organism: Canis lupus familiaris; test: Induction of apoptosis in canine GL1 cells assessed as downregulation of Bcl-xl expression at 50 ug/ml after 24 hrs by Western blot analysis; assay type: functional, cell-based
CLBL-1 [7] = test: Induction of apoptosis in canine CLBL1 cells assessed as downregulation of Bcl-xl expression at 50 ug/ml after 24 hrs by Western blot analysis; assay type: functional, cell-based; conditions: Canis lupus familiaris
Jurkat [8] = test: Induction of apoptosis in human Jurkat cells preincubated with Z-VAD-fmk pan-caspase inhibitor assessed as activation of caspase-3/7 at 50 ug/ml after 24 hrs by flow cytometry; assay type: functional, cell-based
Jurkat [9] = test: Induction of apoptosis in human Jurkat cells assessed as downregulation of Bcl-xl expression at 25 ug/ml after 24 hrs by Western blot analysis; assay type: functional, cell-based
Jurkat [10] = test: Cytotoxic activity against human Jurkat cells assessed as cell death at 50 ug/ml after 24 hrs by propidium iodide staining-based FACS analysis; assay type: functional
CLBL-1 [11] = test: Induction of apoptosis in canine CLBL1 cells assessed as cleavage of PARP1 at 50 ug/ml after 24 hrs by Western blot analysis; assay type: functional, cell-based; conditions: Canis lupus familiaris
CLB70 [12] = test: Induction of apoptosis in canine CLB70 cells assessed as cleavage of PARP1 at 25 to 50 ug/ml after 24 hrs by Western blot analysis; assay type: functional, cell-based; conditions: Canis lupus familiaris
Jurkat [13] = test: Induction of apoptosis in human Jurkat cells assessed as cleavage of Bid at 25 to 50 ug/ml after 24 hrs by Western blot analysis; assay type: functional, cell-based
CLB70 [14] = test: Induction of apoptosis in canine CLB70 cells assessed as downregulation of Bcl-xl expression at 50 ug/ml after 24 hrs by Western blot analysis; assay type: functional, cell-based; conditions: Canis lupus familiaris
Canis lupus familiaris [15] = organism: Canis lupus familiaris; test: Induction of apoptosis in canine GL1 cells assessed as downregulation of Bcl-xl expression at 25 ug/ml after 24 hrs by Western blot analysis; assay type: functional, cell-based
Jurkat [16] = test: Cytotoxic activity against human Jurkat cells assessed as cell death after 24 hrs by propidium iodide staining-based FACS analysis; assay type: functional
CLB70 [17] = test: Induction of apoptosis in canine CLB70 cells at 50 ug/ml after 24 hrs by Annexin V/FITC staining based FACS analysis; assay type: functional, cell-based; conditions: Canis lupus familiaris
Jurkat [18] = test: Induction of apoptosis in human Jurkat cells assessed as cleavage of PARP1 at 25 to 50 ug/ml after 24 hrs by Western blot analysis; assay type: functional, cell-based
Jurkat [19] = test: Induction of apoptosis in human Jurkat cells assessed as downregulation of Bcl-2 expression at 50 ug/ml after 24 hrs by Western blot analysis; assay type: functional, cell-based
CLB70 [20] = test: Induction of apoptosis in canine CLB70 cells assessed as downregulation of Bcl-2 expression at 50 ug/ml after 24 hrs by Western blot analysis; assay type: functional, cell-based; conditions: Canis lupus familiaris
Canis lupus familiaris [21] = organism: Canis lupus familiaris; test: Induction of apoptosis in canine GL1 cells at 50 ug/ml after 24 hrs by Annexin V/FITC staining based FACS analysis; assay type: functional, cell-based
Jurkat [22] = test: Induction of apoptosis in human Jurkat cells assessed as downregulation of Bcl-xl expression at 50 ug/ml after 24 hrs by Western blot analysis; assay type: functional, cell-based
CLBL-1 [23] = test: Cytotoxic activity against canine CLBL1 cells assessed as cell death after 24 hrs by propidium iodide staining-based FACS analysis; assay type: functional; conditions: Canis lupus familiaris
Canis lupus familiaris [24] = organism: Canis lupus familiaris; test: Induction of apoptosis in canine GL1 cells assessed as downregulation of Bcl-2 expression at 50 ug/ml after 24 hrs by Western blot analysis; assay type: functional, cell-based
[25] = Induction of apoptosis in canine GL1 cells assessed as activation of caspase-3/7 at 50 ug/ml after 24 hrs by flow cytometry; assay type: functional, Canis lupus familiaris
CLBL-1 [26] = test: Induction of apoptosis in canine CLBL1 cells preincubated with Z-VAD-fmk pan-caspase inhibitor assessed as activation of caspase-3/7 at 50 ug/ml after 24 hrs by flow cytometry; assay type: functional, cell-based; conditions: Canis lupus familiaris
CLBL-1 [27] = test: Cytotoxic activity against canine CLBL1 cells assessed as cell death at 50 ug/ml after 24 hrs by propidium iodide staining-based FACS analysis; assay type: functional, Canis lupus familiaris
CLB70 [28] = test: Cytotoxic activity against canine CLB70 cells assessed as cell death after 24 hrs by propidium iodide staining-based FACS analysis; assay type: functional; conditions: Canis lupus familiaris
Jurkat [29] = test: Induction of apoptosis in human Jurkat cells at 50 ug/ml after 24 hrs by Annexin V/FITC staining based FACS analysis; assay type: functional, cell-based
Jurkat [30] = test: Induction of apoptosis in human Jurkat cells assessed as activation of caspase-3/7 at 50 ug/ml after 24 hrs by flow cytometry; assay type: functional
CLB70 [31] = test: Induction of apoptosis in canine CLB70 cells preincubated with Z-VAD-fmk pan-caspase inhibitor assessed as activation of caspase-3/7 at 50 ug/ml after 24 hrs by flow cytometry; assay type: functional, cell-based; conditions: Canis lupus familiaris
CLBL-1 [32] = test: Induction of apoptosis in canine CLBL1 cells assessed as activation of caspase-3/7 at 50 ug/ml after 24 hrs by flow cytometry; assay type: functional, Canis lupus familiaris
CLB70 [33] = test: Cytotoxic activity against canine CLB70 cells assessed as cell death at 50 ug/ml after 24 hrs by propidium iodide staining-based FACS analysis; assay type: functional, Canis lupus familiaris
CLB70 [34] = test: Induction of apoptosis in canine CLB70 cells assessed as activation of caspase-3/7 at 50 ug/ml after 24 hrs by flow cytometry; assay type: functional, Canis lupus familiaris
Canis lupus familiaris [35] = organism: Canis lupus familiaris; test: Cytotoxic activity against canine GL1 cells assessed as cell death after 24 hrs by propidium iodide staining-based FACS analysis; assay type: functional
CLBL-1 [36] = test: Induction of apoptosis in canine CLBL1 cells at 50 ug/ml after 24 hrs by Annexin V/FITC staining based FACS analysis; assay type: functional, cell-based; conditions: Canis lupus familiaris
CLBL-1 [37] = test: Induction of apoptosis in canine CLBL1 cells assessed as downregulation of Bcl-2 expression at 25 to 50 ug/ml after 24 hrs by Western blot analysis; assay type: functional, cell-based; conditions: Canis lupus familiaris
Canis lupus familiaris [38] = organism: Canis lupus familiaris; test: Induction of apoptosis in canine GL1 cells assessed as downregulation of Bcl-xl expression at 25 to 50 ug/ml after 24 hrs by Western blot analysis; assay type: functional, cell-based
Jurkat [39] = test: Induction of apoptosis in human Jurkat cells assessed as downregulation of Bcl-xl expression at 25 to 50 ug/ml after 24 hrs by Western blot analysis; assay type: functional, cell-based
Jurkat [40] = test: Induction of apoptosis in human Jurkat cells assessed as downregulation of Bcl-2 expression at 25 to 50 ug/ml after 24 hrs by Western blot analysis; assay type: functional, cell-based
CLBL-1 [41] = test: Induction of apoptosis in canine CLBL1 cells assessed as cleavage of Bid at 25 to 50 ug/ml after 24 hrs by Western blot analysis; assay type: functional, cell-based; conditions: Canis lupus familiaris
CLB70 [42] = test: Induction of apoptosis in canine CLB70 cells assessed as downregulation of Bcl-2 expression at 25 to 50 ug/ml after 24 hrs by Western blot analysis; assay type: functional, cell-based; conditions: Canis lupus familiaris
CLB70 [43] = test: Induction of apoptosis in canine CLB70 cells assessed as downregulation of Bcl-xl expression at 25 to 50 ug/ml after 24 hrs by Western blot analysis; assay type: functional, cell-based; conditions: Canis lupus familiaris
Canis lupus familiaris [44] = organism: Canis lupus familiaris; test: Induction of apoptosis in canine GL1 cells assessed as downregulation of Bcl-2 expression at 25 to 50 ug/ml after 24 hrs by Western blot analysis; assay type: functional, cell-based
CLBL-1 [45] = test: Induction of apoptosis in canine CLBL1 cells assessed as downregulation of Bcl-xl expression at 25 to 50 ug/ml after 24 hrs by Western blot analysis; assay type: functional, cell-based; conditions: Canis lupus familiaris

SMILES | Activity (Canis lupus familiaris [3]) | Activity [5] | Activity (Jurkat [8]) | Activity (Jurkat [10]) | Activity (CLBL-1 [11]) | Activity (CLB70 [12]) | Activity (Jurkat [13]) | Activity (Jurkat [16]) | Activity (CLB70 [17]) | Activity (Jurkat [18]) | Activity (Canis lupus familiaris [21]) | Activity (CLBL-1 [23]) | Activity [25] | Activity (CLBL-1 [26]) | Activity (CLBL-1 [27]) | Activity (CLB70 [28]) | Activity (Jurkat [29]) | Activity (Jurkat [30]) | Activity (CLB70 [31]) | Activity (CLBL-1 [32]) | also measured
Cc1ccc(C)c([C@H]2CC(=O)O[C@@H]2[C@@H](C)I)c1 | inactive | 60% | inactive | 60% | Active | Active | inactive | Dose-dependent effect | Active | Active | Active | Dose-dependent effect | 58.47% | inactive | 80% | Dose-dependent effect | Active | 66.93% | inactive | 78.89% | Activity (CLB70 [1]): Active; Activity (Canis lupus familiaris [2]): Active; Activity (CLBL-1 [4]): inactive; Activity (Canis lupus familiaris [6]): Active; Activity (CLBL-1 [7]): inactive; Activity (Jurkat [9]): inactive; Activity (CLB70 [14]): Active; Activity (Canis lupus familiaris [15]): inactive; Activity (Jurkat [19]): Active; Activity (CLB70 [20]): Active; Activity (Jurkat [22]): Active; Activity (Canis lupus familiaris [24]): Active; Activity (CLB70 [33]): 60%; Activity (CLB70 [34]): 55.8%; Activity (Canis lupus familiaris [35]): Dose-dependent effect; Activity (CLBL-1 [36]): Active
Cc1ccc(C)c([C@@H]2CC(=O)O[C@H]2[C@H](C)I)c1 | inactive | 25% | inactive | 25% | Active | Active | inactive | Dose-dependent effect | Active | Active | Active | Dose-dependent effect | 20.35% | inactive | 80% | Dose-dependent effect | Active | 32.35% | inactive | 73.53% | Activity (CLBL-1 [37]): inactive; Activity (Canis lupus familiaris [38]): Active; Activity (Jurkat [39]): Active; Activity (Jurkat [40]): Active; Activity (CLBL-1 [41]): Active; Activity (CLB70 [42]): Active; Activity (CLB70 [43]): Active; Activity (Canis lupus familiaris [44]): Active; Activity (CLB70 [33]): 25%; Activity (CLBL-1 [45]): inactive; Activity (CLB70 [34]): 30.04%; Activity (Canis lupus familiaris [35]): Dose-dependent effect; Activity (CLBL-1 [36]): Active
